Source: ChEMBL document CHEMBL1148786, “L-(+)-2-Amino-4-thiophosphonobutyric acid (L-thioAP4), a new potent agonist of group III metabotropic glutamate receptors: increased distal acidity affords enhanced potency” (J Med Chem, 2007)
Calls of active or inactive are those of the source. The calls are words filed in the database; no cut-off is given here.

How the values were obtained:
[1] = molecular target: Metabotropic glutamate receptor 4 (Rattus norvegicus, UniProt P31423); assay: Agonist activity at rat mGluR4 receptor expressed HEK293 cells assessed as effect on inositol phosphate production; assay type: functional, cell-based
[2] = molecular target: Metabotropic glutamate receptor 2 (Homo sapiens) (UniProt Q14416); assay: Activity at mGluR2 receptor at 100 uM
[3] = molecular target: Metabotropic glutamate receptor 7 (Rattus norvegicus, UniProt P35400); assay: Agonist activity at rat mGluR7 receptor expressed HEK293 cells assessed as effect on inositol phosphate production; assay type: functional, cell-based
[4] = molecular target: Metabotropic glutamate receptor 6 (Rattus norvegicus, UniProt P35349); assay: Agonist activity at rat mGluR6 receptor expressed HEK293 cells assessed as effect on inositol phosphate production; assay type: functional, cell-based
[5] = molecular target: Metabotropic glutamate receptor 1 (Homo sapiens) (UniProt Q13255); assay: Activity at mGluR1 receptor at 100 uM
[6] = molecular target: Metabotropic glutamate receptor 3 (Homo sapiens) (UniProt Q14832); assay: Activity at mGluR3 receptor at 100 uM
[7] = molecular target: Metabotropic glutamate receptor 8 (Rattus norvegicus, UniProt P70579); assay: Agonist activity at rat mGluR8 receptor expressed HEK293 cells assessed as effect on inositol phosphate production; assay type: functional, cell-based
[8] = molecular target: Metabotropic glutamate receptor 5 (Homo sapiens) (UniProt P41594); assay: Activity at mGluR5 receptor at 100 uM
Chain of Metabotropic glutamate receptor 5 (Homo sapiens) (P41594 21-1212 limits assumed): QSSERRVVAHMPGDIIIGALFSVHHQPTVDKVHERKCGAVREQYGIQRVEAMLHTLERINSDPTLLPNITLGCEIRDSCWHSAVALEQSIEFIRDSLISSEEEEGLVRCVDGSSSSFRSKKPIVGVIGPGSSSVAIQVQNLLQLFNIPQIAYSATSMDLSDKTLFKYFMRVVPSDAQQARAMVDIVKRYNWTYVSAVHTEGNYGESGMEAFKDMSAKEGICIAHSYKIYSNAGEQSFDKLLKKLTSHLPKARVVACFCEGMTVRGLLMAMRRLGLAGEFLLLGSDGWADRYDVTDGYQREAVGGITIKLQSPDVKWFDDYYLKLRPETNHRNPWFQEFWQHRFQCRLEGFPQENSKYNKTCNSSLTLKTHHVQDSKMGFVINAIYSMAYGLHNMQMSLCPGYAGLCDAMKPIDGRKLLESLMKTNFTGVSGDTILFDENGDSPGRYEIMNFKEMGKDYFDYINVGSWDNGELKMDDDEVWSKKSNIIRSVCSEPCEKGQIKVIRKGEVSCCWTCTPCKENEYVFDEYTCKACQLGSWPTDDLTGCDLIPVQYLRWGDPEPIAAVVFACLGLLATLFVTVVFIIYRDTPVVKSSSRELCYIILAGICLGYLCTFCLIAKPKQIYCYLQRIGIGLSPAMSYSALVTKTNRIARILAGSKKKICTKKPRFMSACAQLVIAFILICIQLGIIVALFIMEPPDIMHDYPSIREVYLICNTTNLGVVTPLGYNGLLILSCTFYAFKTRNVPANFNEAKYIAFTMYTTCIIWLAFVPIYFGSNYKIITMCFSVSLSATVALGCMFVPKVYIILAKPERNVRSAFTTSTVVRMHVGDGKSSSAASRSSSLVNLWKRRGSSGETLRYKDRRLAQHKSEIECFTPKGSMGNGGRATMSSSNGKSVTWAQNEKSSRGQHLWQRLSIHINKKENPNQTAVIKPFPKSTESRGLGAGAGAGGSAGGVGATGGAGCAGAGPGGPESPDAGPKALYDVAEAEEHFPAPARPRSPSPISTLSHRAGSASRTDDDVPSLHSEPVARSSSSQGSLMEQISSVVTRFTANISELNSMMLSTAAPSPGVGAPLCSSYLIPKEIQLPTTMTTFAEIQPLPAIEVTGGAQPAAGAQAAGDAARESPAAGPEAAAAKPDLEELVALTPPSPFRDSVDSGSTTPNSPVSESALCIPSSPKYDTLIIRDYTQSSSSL

Chain of Metabotropic glutamate receptor 3 (Homo sapiens) (Q14832 23-879 limits assumed): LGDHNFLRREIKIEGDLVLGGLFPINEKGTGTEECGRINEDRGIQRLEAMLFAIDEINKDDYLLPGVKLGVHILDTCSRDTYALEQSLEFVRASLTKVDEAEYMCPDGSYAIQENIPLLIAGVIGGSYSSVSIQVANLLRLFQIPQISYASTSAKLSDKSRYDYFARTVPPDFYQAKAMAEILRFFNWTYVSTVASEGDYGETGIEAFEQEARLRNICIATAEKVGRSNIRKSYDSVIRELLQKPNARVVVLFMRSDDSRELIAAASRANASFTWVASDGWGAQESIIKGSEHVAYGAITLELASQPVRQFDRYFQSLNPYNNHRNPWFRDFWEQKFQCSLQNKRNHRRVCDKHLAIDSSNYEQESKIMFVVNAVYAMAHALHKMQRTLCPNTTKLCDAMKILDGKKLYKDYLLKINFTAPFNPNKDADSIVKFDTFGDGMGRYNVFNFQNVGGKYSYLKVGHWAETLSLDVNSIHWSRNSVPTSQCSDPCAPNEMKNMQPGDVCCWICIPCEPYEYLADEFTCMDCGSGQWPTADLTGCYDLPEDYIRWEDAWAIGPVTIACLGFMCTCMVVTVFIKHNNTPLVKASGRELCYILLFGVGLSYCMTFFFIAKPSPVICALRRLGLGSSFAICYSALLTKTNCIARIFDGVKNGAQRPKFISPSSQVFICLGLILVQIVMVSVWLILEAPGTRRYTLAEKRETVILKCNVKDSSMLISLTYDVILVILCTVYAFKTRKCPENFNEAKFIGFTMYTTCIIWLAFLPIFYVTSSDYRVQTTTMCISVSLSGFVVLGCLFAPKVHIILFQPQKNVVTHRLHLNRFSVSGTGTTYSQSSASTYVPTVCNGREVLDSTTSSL
Chain of Metabotropic glutamate receptor 2 (Homo sapiens) (Q14416 19-872 limits assumed): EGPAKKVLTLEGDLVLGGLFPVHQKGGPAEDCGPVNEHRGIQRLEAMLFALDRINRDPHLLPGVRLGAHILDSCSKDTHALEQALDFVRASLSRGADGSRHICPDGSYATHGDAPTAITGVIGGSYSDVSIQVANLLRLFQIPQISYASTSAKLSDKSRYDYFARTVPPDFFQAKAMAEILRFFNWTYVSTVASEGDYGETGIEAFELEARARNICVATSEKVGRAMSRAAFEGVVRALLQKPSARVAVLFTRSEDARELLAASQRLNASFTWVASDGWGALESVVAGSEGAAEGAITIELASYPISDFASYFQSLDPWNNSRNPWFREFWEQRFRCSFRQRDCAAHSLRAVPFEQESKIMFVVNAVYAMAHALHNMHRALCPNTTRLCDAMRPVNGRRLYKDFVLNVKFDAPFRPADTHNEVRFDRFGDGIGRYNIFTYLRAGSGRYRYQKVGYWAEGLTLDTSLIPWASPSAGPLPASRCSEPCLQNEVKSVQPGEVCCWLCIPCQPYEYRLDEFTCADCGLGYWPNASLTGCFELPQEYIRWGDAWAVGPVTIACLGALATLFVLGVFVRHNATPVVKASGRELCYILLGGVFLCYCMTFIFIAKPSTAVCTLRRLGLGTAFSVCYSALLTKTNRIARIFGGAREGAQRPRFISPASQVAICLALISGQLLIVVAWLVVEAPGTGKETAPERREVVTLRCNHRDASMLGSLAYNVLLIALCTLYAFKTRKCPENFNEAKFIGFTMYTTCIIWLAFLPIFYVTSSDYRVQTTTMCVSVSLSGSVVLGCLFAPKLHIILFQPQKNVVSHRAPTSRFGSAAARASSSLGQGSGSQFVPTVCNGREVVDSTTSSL
Chain of Metabotropic glutamate receptor 1 (Homo sapiens) (Q13255 19-1194 limits assumed): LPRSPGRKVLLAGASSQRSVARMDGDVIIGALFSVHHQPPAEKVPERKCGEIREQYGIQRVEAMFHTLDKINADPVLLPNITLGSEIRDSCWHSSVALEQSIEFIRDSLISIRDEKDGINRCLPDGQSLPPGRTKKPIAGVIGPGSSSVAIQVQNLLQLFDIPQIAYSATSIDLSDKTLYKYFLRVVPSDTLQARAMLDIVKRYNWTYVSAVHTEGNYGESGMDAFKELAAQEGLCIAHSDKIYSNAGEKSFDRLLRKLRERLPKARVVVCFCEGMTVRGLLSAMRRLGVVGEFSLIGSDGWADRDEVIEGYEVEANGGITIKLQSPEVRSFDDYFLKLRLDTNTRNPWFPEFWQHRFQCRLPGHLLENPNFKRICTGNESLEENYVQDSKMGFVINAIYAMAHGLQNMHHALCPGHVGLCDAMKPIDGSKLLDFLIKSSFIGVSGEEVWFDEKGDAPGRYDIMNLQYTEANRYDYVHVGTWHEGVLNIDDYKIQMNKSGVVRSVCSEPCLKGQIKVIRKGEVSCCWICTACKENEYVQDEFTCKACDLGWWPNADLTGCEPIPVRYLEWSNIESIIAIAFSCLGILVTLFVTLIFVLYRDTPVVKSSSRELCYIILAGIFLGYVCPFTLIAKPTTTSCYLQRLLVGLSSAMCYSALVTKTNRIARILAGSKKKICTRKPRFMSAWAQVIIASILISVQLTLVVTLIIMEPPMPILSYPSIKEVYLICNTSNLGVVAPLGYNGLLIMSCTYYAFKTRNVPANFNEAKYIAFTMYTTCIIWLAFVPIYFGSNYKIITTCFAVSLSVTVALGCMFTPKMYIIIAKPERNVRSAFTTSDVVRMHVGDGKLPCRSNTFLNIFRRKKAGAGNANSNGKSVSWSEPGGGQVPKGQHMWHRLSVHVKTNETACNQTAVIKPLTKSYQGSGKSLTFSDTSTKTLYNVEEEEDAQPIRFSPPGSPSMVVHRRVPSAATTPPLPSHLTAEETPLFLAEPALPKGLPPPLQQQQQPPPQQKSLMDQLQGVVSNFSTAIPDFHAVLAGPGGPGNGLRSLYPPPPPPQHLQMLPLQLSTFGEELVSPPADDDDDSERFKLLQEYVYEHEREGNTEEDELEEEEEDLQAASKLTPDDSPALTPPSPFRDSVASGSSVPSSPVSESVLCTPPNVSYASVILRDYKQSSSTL
Chain of Metabotropic glutamate receptor 6 (P35349 whole entry): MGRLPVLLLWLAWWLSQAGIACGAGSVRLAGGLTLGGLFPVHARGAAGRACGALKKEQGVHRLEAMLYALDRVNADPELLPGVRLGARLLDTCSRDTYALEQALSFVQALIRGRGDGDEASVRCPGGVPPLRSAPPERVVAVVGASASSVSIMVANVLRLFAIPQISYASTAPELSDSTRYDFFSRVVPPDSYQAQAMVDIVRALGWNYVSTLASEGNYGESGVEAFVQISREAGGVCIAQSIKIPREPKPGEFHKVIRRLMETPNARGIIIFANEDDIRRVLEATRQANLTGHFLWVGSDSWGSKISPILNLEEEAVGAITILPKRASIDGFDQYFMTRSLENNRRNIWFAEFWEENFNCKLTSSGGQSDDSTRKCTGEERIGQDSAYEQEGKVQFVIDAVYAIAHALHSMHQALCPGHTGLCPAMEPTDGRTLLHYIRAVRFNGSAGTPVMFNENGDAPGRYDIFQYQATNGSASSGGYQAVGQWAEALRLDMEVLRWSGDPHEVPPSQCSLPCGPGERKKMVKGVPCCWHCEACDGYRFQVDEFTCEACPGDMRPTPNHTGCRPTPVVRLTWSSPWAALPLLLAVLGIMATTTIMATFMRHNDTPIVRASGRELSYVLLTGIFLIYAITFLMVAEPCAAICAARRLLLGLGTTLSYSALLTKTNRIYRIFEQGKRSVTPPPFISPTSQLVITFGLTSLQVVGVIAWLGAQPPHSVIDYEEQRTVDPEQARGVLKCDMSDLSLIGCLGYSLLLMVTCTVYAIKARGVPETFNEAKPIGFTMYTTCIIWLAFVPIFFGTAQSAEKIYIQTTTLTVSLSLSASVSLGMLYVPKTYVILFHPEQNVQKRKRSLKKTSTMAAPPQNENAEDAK

Compound	EC50 [1]	Activity [2]	EC50 [3]	EC50 [4]	Activity [5]	Activity [6]	EC50 [7]	Activity [8]
CP(=O)(O)CC[C@H](N)C(=O)O [PHOSPHINOTHRICIN]	1100 µM	inactive	> 500 µM	> 500 µM	inactive	inactive	412 µM	inactive
N[C@@H](CCP(=O)(O)O)C(=O)O	–	inactive	–	–	inactive	inactive	–	inactive
N[C@@H](CCP(O)(O)=S)C(=O)O	–	inactive	–	–	inactive	inactive	–	inactive
N[C@@H](CC[PH](=O)O)C(=O)O	4.05 µM	inactive	> 500 µM	27.8 µM	inactive	inactive	1.72 µM	inactive
